Reference: PMC10105947, “Discovery of novel amino acid production traits by evolution of synthetic co-cultures” (Microbial Cell Factories, 2023)

Key:
[1] = target: T1, ArgT (Corynebacterium glutamicum, UniProt Q8NQU2); assay: isothermal titration calorimetry, purified His10-ArgT; type: binding
T1 construct: His10-ArgT, variant with cleavable His-tag and lacking the signal peptide

[2] = target: T1, ArgT; assay: isothermal titration calorimetry, purified His10-ArgT (one measurement); type: binding

T1 sequence (Q8NQU2 27-304): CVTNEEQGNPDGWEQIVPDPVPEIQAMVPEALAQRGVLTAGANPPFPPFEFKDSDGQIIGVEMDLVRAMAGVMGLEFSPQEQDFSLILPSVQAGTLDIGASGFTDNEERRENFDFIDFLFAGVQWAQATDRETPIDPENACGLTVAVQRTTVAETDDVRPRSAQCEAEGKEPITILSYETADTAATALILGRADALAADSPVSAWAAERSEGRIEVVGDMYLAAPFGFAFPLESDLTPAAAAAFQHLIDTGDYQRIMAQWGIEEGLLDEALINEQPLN

N=C(N)NCCC[C@H](N)C(=O)O [L-arginine]
Kd [1]: 0.0295 ± 0.0048 µM

NC(=O)NCCC[C@H](N)C(=O)O [L-citrulline]
Kd [2]: 0.432 µM
